Activity calls are given as the source filed them. The calls are words filed in the database; no cut-off is given here. Where a SMILES comes first, the peptide text is derived from it. Bridges are numbered along the chain shown (N, C = ends). [ ]: non-standard residue; d: D form. The star is where a group is joined. Ileψ(thiazoline)Cys = CC[C@H](C)[C@H](N)C1=N[C@H](C(=O)*)CS1; dOrn = NCCC[C@@H](N)C(=O)O

Test [1] relates to Escherichia coli. Kind of test: Antibacterial activity against Escherichia coli BAS849 mutant at 30 ug after 18 hrs by agar diffusion test. Format: functional. Conditions: read-out: IZ. (A growth-free zone around the sample is the usual read-out of agar diffusion tests.)
For test [2], the system named is Staphylococcus aureus. Kind of test: Antibacterial activity against methicillin-resistant Staphylococcus aureus at 200 ug after 18 hrs by agar diffusion test. The format is functional. Conditions: for zone of inhibition at 200 µg/disc: read-out: IZ.
The subject of test [3] is Escherichia coli. Kind of test: Antibacterial activity against Escherichia coli BAS849 mutant at 200 ug after 18 hrs by agar diffusion test. Format: functional. As to conditions: for zone of inhibition at 200 µg/disc: read-out: IZ.
Test [4] relates to Staphylococcus aureus. Kind of test: Antibacterial activity against methicillin-susceptible Staphylococcus aureus at 200 ug after 18 hrs by agar diffusion test. The format is functional. Conditions: for zone of inhibition at 200 µg/disc: read-out: IZ.
A further test concerns Candida albicans. Kind of test: Antimicrobial activity against Candida albicans at 200 ug after 18 hrs by agar diffusion test. The format is functional, organism-based.
Test [5] concerns Enterococcus faecium. Kind of test: Antibacterial activity against vancomycin-resistant Enterococcus faecium at 200 ug after 18 hrs by agar diffusion test. The format is functional. Conditions: for zone of inhibition at 200 µg/disc: read-out: IZ.
Test [6] has as its system Staphylococcus aureus. Kind of test: Antibacterial activity against methicillin-susceptible Staphylococcus aureus at 30 ug after 18 hrs by agar diffusion test. Format: functional. Conditions: read-out: IZ.
Test [7] has as its system Staphylococcus aureus. The test can be described thus: Antibacterial activity against methicillin-resistant Staphylococcus aureus at 30 ug after 18 hrs by agar diffusion test. Conditions: read-out: IZ. Format: functional.
The subject of test [8] is Enterococcus faecium. The test can be described thus: Antibacterial activity against vancomycin-resistant Enterococcus faecium at 10 ug after 18 hrs by agar diffusion test. Format: functional. As to conditions: read-out: IZ.

`CO[C@@]1(NC(=O)Cc2cccs2)C(=O)N2C(C(=O)O)=C(COC(N)=O)CS[C@@H]21` [CEFOXITIN]: the zone of inhibition at 30 µg/disc in the test with Escherichia coli [1] stood at 16 mm.

As for `CC1=CC(=O)[C@H]2[C@@H]3CC[C@H](C(C)C)[C@@]3(C(=O)O)CC[C@@]2(C)C=C1`, the zone of inhibition at 200 µg/disc in the test with Staphylococcus aureus [2], with Escherichia coli [3], in the test on Staphylococcus aureus [4] and with Enterococcus faecium [5] was 8 mm in each case. The outcome in the test on Candida albicans was inactive.

Regarding `CC(C)[C@H]1CC[C@H]2[C@@H]3C=C[C@](C)(O)CC[C@]3(C)CC[C@]12C(=O)O`, the outcome in the test with Staphylococcus aureus [2], in the test on Escherichia coli [3], in the test on Staphylococcus aureus [4], in the test with Candida albicans and with Enterococcus faecium [5] was inactive.

As to `CC1=CC[C@]2(C)CC[C@]3(C(=O)O)[C@@H](C(C)C)CC[C@H]3[C@@H]2C=C1`, the outcome in the test with Staphylococcus aureus [2], with Escherichia coli [3], in the test on Staphylococcus aureus [4], with Candida albicans and in the test on Enterococcus faecium [5] was inactive.

Regarding `CN[C@H](CC(C)C)C(=O)N[C@H]1C(=O)N[C@@H](CC(N)=O)C(=O)N[C@H]2C(=O)N[C@H]3C(=O)N[C@H](C(=O)N[C@H](C(=O)O)c4cc(O)cc(O)c4-c4cc3ccc4O)[C@H](O)c3ccc(c(Cl)c3)Oc3cc2cc(c3O[C@@H]2O[C@H](CO)[C@@H](O)[C@H](O)[C@H]2O[C@H]2C[C@](C)(N)[C@H](O)[C@H](C)O2)Oc2ccc(cc2Cl)[C@H]1O` [VANCOMYCIN], the zone of inhibition at 30 µg/disc in the test on Staphylococcus aureus [6] and with Staphylococcus aureus [7] was 16 mm in each case.

In the case of `CC[C@H](C)[C@H](N)C1=N[C@H](C(=O)N[C@@H](CC(C)C)C(=O)N[C@H](CCC(=O)O)C(=O)N[C@H](C(=O)N[C@H]2CCCCNC(=O)[C@H](CC(N)=O)NC(=O)[C@@H](CC(=O)O)NC(=O)[C@H](Cc3cnc[nH]3)NC(=O)[C@@H](Cc3ccccc3)NC(=O)[C@H]([C@@H](C)CC)NC(=O)[C@@H](CCCN)NC2=O)[C@@H](C)CC)CS1` [BACITRACIN] ({Ileψ(thiazoline)Cys}-L[dE]IK[dOrn]I[dF]H[dD]N; lactam 4-C), the zone of inhibition at 10 µg/disc in the test on Enterococcus faecium [8] worked out at 16 mm.

With `CC1=CC(=O)[C@H]2[C@@H]3CC[C@H](C(C)C)[C@@]3(C(=O)O)CC[C@@]2(C)CC1=O`, the zone of inhibition at 200 µg/disc in the test on Staphylococcus aureus [2], in the test with Escherichia coli [3], with Staphylococcus aureus [4] and with Enterococcus faecium [5] was 8 mm in each case. For the same compound, the outcome in the test on Candida albicans was inactive.

These data come from ChEMBL document CHEMBL1144115, “Antibacterial diterpenoid acids from Azorella compacta” (1999).
